Laboratory results: patent US8609086B2, “Preparation created from an in vitro culture of dedifferentiated, non-elicited cells of the Argania tree, use thereof for treating skin ageing, inflammation and scarring, and production thereof” (Pierre Fabre Dermo-Cosmetique, priority 2010, dated 2013)

Experiment: Anti-oxidizing activity by chemiluminescence (ACL kit), trolox equivalent
Format: biochemical
Conditions: anti-oxidizing power in trolox equivalent, trapping of superoxide anions
Text: This method generates free radicals (superoxide radical O2^o−) by a photochemical signal. The intensity of oxidation is 1000 times greater than that obtained under normal conditions. Detection is done by chemiluminescence and is used to evaluate lipo or hydrosoluble anti-oxidizing extracts or molecules. The results are expressed as an equivalent quantity of vitamin C or Trolox (6-Hydroxy-2,5,7,8-tetramethylchroman-2-carboxylic acid). The sensitivity is of the order of one nanomole.
The analysis of the results depends on two criteria, namely the shape of the curve (integration) and the numerical value given by the software in nanomoles. (Igor Popov and Gudrun Lewin. Methods in enzymology vol 300. 437-456; Maibach I Howard and coll. Journal of Cosmetic Dermatology Vol 7(2) 96-100 (2008)).
The results will be expressed in μg of sample necessary to obtain an activity equivalent to the activity detected for 1 μg of standard (=trolox). (ACL Kit).
The anti-oxidizing activity studied in this test represents the ability to specifically trap superoxide anions by chemiluminescence.

Structure (SMILES) | ACL μg of sample for 1 μg of Trolox
COC1=C(OC)C(=O)C(C/C=C(\C)CC/C=C(\C)CC/C=C(\C)CC/C=C(\C)CC/C=C(\C)CC/C=C(\C)CC/C=C(\C)CC/C=C(\C)CC/C=C(\C)CCC=C(C)C)=C(C)C1=O [Coenzyme 10] | 272 μg of sample for 1 μg of Trolox
Cc1c(C)c2c(c(C)c1O)CCC(C)(C(=O)O)O2 (centres unmarked) [Trolox, 6-Hydroxy-2,5,7,8-tetramethylchroman-2-carboxylic acid] | 1 μg of sample for 1 μg of Trolox
